Data as given in ChEMBL document CHEMBL1157402, “Solid-phase total synthesis of cyclic decapeptide phakellistatin 12” (2008).
Values after ≈ are worked out from the molar mass of the structure shown. Peptide text beside a SMILES is read from it.

Test system: P388
Test: Anticancer activity against mouse P388 cells
Assay type: functional
Details: read-out: ED50 (the source's name)

Going from `CC[C@H](C)[C@@H]1NC(=O)[C@@H]2CCCN2C(=O)[C@H](Cc2ccccc2)NC(=O)[C@@H]2CCCN2C(=O)[C@H](Cc2ccc(O)cc2)NC(=O)[C@@H]2CCCN2C(=O)[C@H]([C@@H](C)CC)NC1=O` [PHAKELLISTATIN 2] (cyclo(FPIIPYP)) to `CC[C@H](C)[C@@H]1NC(=O)[C@@H]2CCCN2C(=O)[C@@H]2CCCN2C(=O)[C@H]([C@@H](C)CC)NC(=O)[C@H](Cc2ccc(O)cc2)NC(=O)[C@@H]2CCCN2C(=O)[C@@H]2CCCN2C(=O)[C@H](CC(C)C)NC(=O)[C@H]([C@@H](C)O)NC(=O)[C@H](Cc2ccccc2)NC1=O` [PHAKELLISTATIN 12] (cyclo(FTLPPYIPPI)), the EC50 rises from 0.34 mg/L (≈ 0.411 µM) to 2.8 mg/L (≈ 2.46 µM) (8.2-fold).

`CC[C@H](C)[C@@H]1NC(=O)[C@H](C)NC(=O)[C@H](CCSC)NC(=O)[C@H](C)NC(=O)[C@H](CC(N)=O)NC(=O)[C@H](Cc2ccccc2)NC(=O)[C@@H]2CCCN2C1=O` [PHAKELLI STATIN 5] (cyclo(AIPFNAM)) and `CC[C@H](C)[C@@H]1NC(=O)[C@H](Cc2ccccc2)NC(=O)[C@@H]2CCCN2C(=O)[C@H](Cc2ccccc2)NC(=O)[C@@H]2CCCN2C(=O)[C@H](CCC(N)=O)NC(=O)[C@@H]2CCCN2C(=O)[C@H](Cc2ccccc2)NC1=O` [PHAKELLI STATIN 11] (cyclo(FIFPQPFP)) are within 1.5-fold of each other in EC50: 0.23 mg/L (≈ 0.309 µM) for the first, 0.2 mg/L (≈ 0.205 µM) for the second.
